Assay results from US20150011423A1, “MEANS AND METHODS FOR ASSESSING KIDNEY TOXICITY” (BASF SE, priority 2011, published 2015).
Where two headings read alike, the source gives them in different places. Marks after values point to notes of the source that are not given here.

Legend:
[1] = test system: rats; settings: rat, in vivo
[2] = test system: rats; assay: 28-day repeated dose study in rats with mass spectrometry-based plasma metabolite profiling (GC-MS, LC-MS, SPE-LC-MS); treatment ratios versus control; settings: plasma; for 4-Hydroxy-3-methoxyphenylglycol (HMPG), treatment ratio versus control / Cysteine, treatment ratio versus control / Isopalmitic acid (C16:0), treatment ratio versus control / Metanephrine, treatment ratio versus control / Normetanephrine, treatment ratio versus control: Table 2d glomerular-tubular defect; for Glutamate, treatment ratio versus control / Lysophosphatidylcholine (C20:4), treatment ratio versus control / Malate, treatment ratio versus control: Table 1d diuretic effect
[3] = female rats, day 14, high dose, Table 2a glomerular-tubular defect
[4] = female rats, day 14, high dose, Table 2b glomerular-tubular defect
[5] = female rats, day 28, high dose, Table 2a glomerular-tubular defect
[6] = female rats, day 28, high dose, Table 2b glomerular-tubular defect
[7] = male rats, day 14, high dose, Table 2c glomerular-tubular defect
[8] = male rats, day 28, high dose, Table 2c glomerular-tubular defect
[9] = male rats, day 7, high dose, Table 1c diuretic effect
[10] = male rats, day 14, high dose, Table 1c diuretic effect
[11] = male rats, day 28, high dose, Table 1c diuretic effect
[12] = female rats, day 28, high dose, Table 1a diuretic effect
[13] = female rats, day 28, high dose, Table 1b diuretic effect
[14] = male rats, day 7, high dose, Table 2c glomerular-tubular defect

Compound: CC(C)(S)[C@@H](N)C(=O)O [Penicillamine]
- 3-Indoxylsulfate, treatment ratio versus control [1]: 1.41 *
- Adrenaline (Epinephrine), treatment ratio versus control [1]: 1.14^
- Histamine, treatment ratio versus control [1]: 1.36^
- Threonic acid, treatment ratio versus control [1]: 1.47 *
- 3-Hydroxyindole, treatment ratio versus control [2, 3]: 0.87^
- 3-Indoxylsulfate, treatment ratio versus control [2, 3]: 0.93^
- Creatinine, treatment ratio versus control [2, 3]: 1.69 *
- Elaidic acid (C18:trans[9]1), treatment ratio versus control [2, 3]: 1.2
- Adrenaline (Epinephrine), treatment ratio versus control [2, 4]: 0.55 *
- Glucosamine, treatment ratio versus control [2, 4]: 0.75^
- Mannosamine, treatment ratio versus control [2, 4]: 0.64 *
- 3-Hydroxyindole, treatment ratio versus control [2, 5]: 1.53 *
- Elaidic acid (C18:trans[9]1), treatment ratio versus control [2, 5]: 1.35 *
- Glucosamine, treatment ratio versus control [2, 6]: 0.48 *
- Histamine, treatment ratio versus control [2, 6]: 0.52 *
- Mannosamine, treatment ratio versus control [2, 6]: 0.5 *
- 4-Hydroxy-3-methoxyphenylglycol (HMPG), treatment ratio versus control ([2]; male rats, day 7, high dose): 0.91 *
- Cysteine, treatment ratio versus control ([2]; male rats, day 7, high dose): 0.46 *
- Isopalmitic acid (C16:0), treatment ratio versus control ([2]; male rats, day 7, high dose): 0.75 *
- Metanephrine, treatment ratio versus control ([2]; male rats, day 7, high dose): 0.83 *
- Normetanephrine, treatment ratio versus control ([2]; male rats, day 7, high dose): 0.79 *
- Creatine, treatment ratio versus control [2, 7]: 1.35 *
- Creatinine, treatment ratio versus control [2, 7]: 1.8 *
- Threonic acid, treatment ratio versus control [2, 7]: 1.4 *
- 4-Hydroxy-3-methoxyphenylglycol (HMPG), treatment ratio versus control ([2]; male rats, day 14, high dose): 0.84 *
- Cysteine, treatment ratio versus control ([2]; male rats, day 14, high dose): 0.51 *
- Metanephrine, treatment ratio versus control ([2]; male rats, day 14, high dose): 0.43 *
- Normetanephrine, treatment ratio versus control ([2]; male rats, day 14, high dose): 0.66 *
- Creatine, treatment ratio versus control [2, 8]: 1.27 *
- Glycerol-3-phosphate, polar fraction, treatment ratio versus control [2, 8]: 1.4 *
- Lysophosphatidylcholine (C18:2), treatment ratio versus control [2, 8]: 1.1
- Threonic acid, treatment ratio versus control [2, 8]: 1.7 *
- 4-Hydroxy-3-methoxyphenylglycol (HMPG), treatment ratio versus control ([2]; male rats, day 28, high dose): 0.79 *
- Cysteine, treatment ratio versus control ([2]; male rats, day 28, high dose): 0.85 *
- Metanephrine, treatment ratio versus control ([2]; male rats, day 28, high dose): 0.68 *
- Normetanephrine, treatment ratio versus control ([2]; male rats, day 28, high dose): 0.68 *

Compound: Cn1cnc2c1c(=O)[nH]c(=O)n2C [Theobromine]
- Ceramide (d18:1, C24:0), treatment ratio versus control [1]: 1.33 *
- Choline plasmalogen No 03, treatment ratio versus control [1]: 1.08 *
- Ceramide (d18:1, C24:0), treatment ratio versus control [2, 9]: 0.84^
- Choline plasmalogen No 02, treatment ratio versus control [2, 9]: 1.38 *
- Glutamate, treatment ratio versus control ([2]; male rats, day 7, high dose): 0.74 *
- Lysophosphatidylcholine (C20:4), treatment ratio versus control ([2]; male rats, day 7, high dose): 0.8 *
- Ceramide (d18:1, C24:0), treatment ratio versus control [2, 10]: 1.35 *
- Choline plasmalogen No 03, treatment ratio versus control [2, 10]: 1.1
- Threonine, treatment ratio versus control [2, 10]: 1.53 *
- Glutamate, treatment ratio versus control ([2]; male rats, day 14, high dose): 0.94 *
- Lysophosphatidylcholine (C20:4), treatment ratio versus control ([2]; male rats, day 14, high dose): 0.86 *
- Ceramide (d18:1, C24:1), treatment ratio versus control [2, 11]: 1.52^
- Choline plasmalogen No 03, treatment ratio versus control [2, 11]: 1.1 *
- Sphingomyelin (d18:2, C16:0), treatment ratio versus control [2, 11]: 1.9 *
- Glutamate, treatment ratio versus control ([2]; male rats, day 28, high dose): 0.87 *
- Lysophosphatidylcholine (C20:4), treatment ratio versus control ([2]; male rats, day 28, high dose): 0.8 *

Compound: Cn1c(=O)c2[nH]cnc2n(C)c1=O [Theophylline]
- Glutamate, treatment ratio versus control [1]: 1.04^
- Glycine, treatment ratio versus control [1]: 1.32 *
- Histidine, treatment ratio versus control [1]: 1.25 *
- Valine, treatment ratio versus control [1]: 1.29 *
- Pantothenic acid, treatment ratio versus control [2, 12]: 1.72 *
- Proline, treatment ratio versus control [2, 12]: 1.57
- Threonic acid, treatment ratio versus control [2, 12]: 1.14
- trans-4-Hydroxyproline, treatment ratio versus control [2, 12]: 1.91 *
- 18-Hydroxy-11-deoxycorticosterone, treatment ratio versus control [2, 13]: 0.5 *
- Creatinine, treatment ratio versus control [2, 13]: 0.8 *
- Hippuric acid, treatment ratio versus control [2, 13]: 0.28 *
- Ceramide (d18:1, C24:0), treatment ratio versus control [2, 9]: 0.92^
- Ceramide (d18:1, C24:1), treatment ratio versus control [2, 9]: 0.75^
- Glutamate, treatment ratio versus control ([2]; male rats, day 7, high dose): 0.64 *
- Lysophosphatidylcholine (C20:4), treatment ratio versus control ([2]; male rats, day 7, high dose): 0.71 *
- Malate, treatment ratio versus control ([2]; male rats, day 7, high dose): 0.76 *
- Ceramide (d18:1, C24:0), treatment ratio versus control [2, 10]: 1.56 *
- Ceramide (d18:1, C24:1), treatment ratio versus control [2, 10]: 1.94 *
- Lysophosphatidylcholine (C20:4), treatment ratio versus control ([2]; male rats, day 14, high dose): 0.87 *
- Malate, treatment ratio versus control ([2]; male rats, day 14, high dose): 0.9
- Ceramide (d18:1, C24:0), treatment ratio versus control [2, 11]: 0.95
- Ceramide (d18:1, C24:1), treatment ratio versus control [2, 11]: 1.17
- Choline plasmalogen No 02, treatment ratio versus control [2, 11]: 1
- Choline plasmalogen No 03, treatment ratio versus control [2, 11]: 1.03
- Glutamate, treatment ratio versus control ([2]; male rats, day 28, high dose): 0.74 *
- Lysophosphatidylcholine (C20:4), treatment ratio versus control ([2]; male rats, day 28, high dose): 0.81 *
- Malate, treatment ratio versus control ([2]; male rats, day 28, high dose): 0.72 *

Compound: Tricresyl phosphate
- Creatine, treatment ratio versus control [2, 14]: 1.16 *
- Creatinine, treatment ratio versus control [2, 14]: 0.77^
- Glycerol-3-phosphate, polar fraction, treatment ratio versus control [2, 14]: 0.83 *
- Lysophosphatidylcholine (C18:2), treatment ratio versus control [2, 14]: 1.19^
- Threonic acid, treatment ratio versus control [2, 14]: 1.32 *
- 4-Hydroxy-3-methoxyphenylglycol (HMPG), treatment ratio versus control ([2]; male rats, day 7, high dose): 0.95^
- Cysteine, treatment ratio versus control ([2]; male rats, day 7, high dose): 0.44 *
- Isopalmitic acid (C16:0), treatment ratio versus control ([2]; male rats, day 7, high dose): 0.84 *
- Metanephrine, treatment ratio versus control ([2]; male rats, day 7, high dose): 0.43 *
- Normetanephrine, treatment ratio versus control ([2]; male rats, day 7, high dose): 0.74 *
- Creatine, treatment ratio versus control [2, 7]: 1.42 *
- Creatinine, treatment ratio versus control [2, 7]: 0.74^
- Glycerol-3-phosphate, polar fraction, treatment ratio versus control [2, 7]: 0.89^
- Lysophosphatidylcholine (C18:2), treatment ratio versus control [2, 7]: 1.27 *
- Threonic acid, treatment ratio versus control [2, 7]: 1.5 *
- 4-Hydroxy-3-methoxyphenylglycol (HMPG), treatment ratio versus control ([2]; male rats, day 14, high dose): 0.93 *
- Cysteine, treatment ratio versus control ([2]; male rats, day 14, high dose): 0.51 *
- Isopalmitic acid (C16:0), treatment ratio versus control ([2]; male rats, day 14, high dose): 0.76 *
- Metanephrine, treatment ratio versus control ([2]; male rats, day 14, high dose): 0.74 *
- Normetanephrine, treatment ratio versus control ([2]; male rats, day 14, high dose): 0.71 *
- Creatine, treatment ratio versus control [2, 8]: 1.11 *
- Creatinine, treatment ratio versus control [2, 8]: 0.78 *
- Glycerol-3-phosphate, polar fraction, treatment ratio versus control [2, 8]: 0.89^
- Lysophosphatidylcholine (C18:2), treatment ratio versus control [2, 8]: 1.15 *
- Threonic acid, treatment ratio versus control [2, 8]: 1.53 *
- 4-Hydroxy-3-methoxyphenylglycol (HMPG), treatment ratio versus control ([2]; male rats, day 28, high dose): 0.83 *
- Cysteine, treatment ratio versus control ([2]; male rats, day 28, high dose): 0.55 *
- Isopalmitic acid (C16:0), treatment ratio versus control ([2]; male rats, day 28, high dose): 0.62 *
- Metanephrine, treatment ratio versus control ([2]; male rats, day 28, high dose): 0.76^
- Normetanephrine, treatment ratio versus control ([2]; male rats, day 28, high dose): 1.03^
